Values of other authors, collected in patent EP1757570A1, “Process for obtaining a purified hydrofluoroalkane with 2 carbon atoms” (Solvay SA, priority 2005, dated 2007).
Read-outs that look alike come from different tables or passages of the source.

## CC(C)(C#N)N=NC(C)(C)C#N [AIBN, 2,2'-azobis(isobutyronitrile)]
65 °C
  Half life: 600 min
82 °C
  Half life: 60 min
120 °C
  Half life: 1 min

## O=C(OOC(=O)c1ccccc1)c1ccccc1 [DBP, dibenzoylperoxide]
73 °C, in solution in benzene
  Half life: 600 min
92 °C, in solution in benzene
  Half life: 60 min
131 °C, in solution in benzene
  Half life: 1 min
